From paper PMC4727972, “Chronic unpredicted mild stress-induced depression alter saxagliptin pharmacokinetics and CYP450 activity in GK rats” (PeerJ, 2016)
Read-outs that look alike come from different tables or passages of the source.

How the values were obtained:
[1] = Pharmacokinetics of Sax in plasma after oral 0.5 mg/kg (HPLC-MS/MS, noncompartmental analysis); type: in vivo, GK rats; settings: for AUC(0-inf) / Cmax / Tmax / MRT last / half-life / Vd/F: plasma, po; for AUC(0-inf) / Cmax / Tmax / MRT last / half-life / Vd/F / CLz/F: n = 9, mean ± SD; for MRT last: read-out: MRT0−t; for half-life: read-out: T1/2z (converted); for Vd/F: read-out: Vz/F
Protocol: All rats were fasted overnight but with free access to water. 0.5 mg/kg Sax (suspended in 5 g/L Carboxymethyl cellulose-Na) was given orally. Blood samples were collected by eye canthus at 0.17, 0.33, 0.5, 0.83, 1.17, 1.5, 2, 3, 5, 8 h. Then plasma samples were centrifuged to obtain plasma at 3,000 × g for 5 min. The samples were stored at −80 °C for analysis.
The Sax concentration was assayed by the HPLC-tandem mass spectrometry (MS/MS) method ([Gao et al., 2012]). A total of 100 µL plasma sample and 10 µL Sit (100 ng/mL) was added with 1.2 mL ethyl acetate in a centrifuge tube, vortex-mixed for 2 min and centrifuged at 10,000 × g for 3 min. The supernatant was evaporated to dry. The residue was re-dissolved with 100 µL methanol via vortex-mixed for 1 min and centrifuged at 16,000 × g for 1 min. 2.0 µL of the supernatant was injected into the HPLC-MS/MS system for analysis.
The HPLC equipped with a reverse-phase column was connected to a triple quadrupole tandem MS with an electrospray interface. The system consists of the LC system (Agilent 1260, Agilent, US) with a G1322A degasser, a G1318B auto-modifiable pump, a G1367E auto-sampler, a G1316A adjustable column temperature box, and the Agilent 6420 MS system. Chromatographic separation was achieved using a ZORBAX EP-C18 column (2.1 mm × 50 mm, 1.8 µm, Agilent). The mobile phase contained 35% methanol and 65% water (0.1% ammonium formate) with a flow rate 0.4 mL/min. The optimized conditions of MS were as follows: positive electrospray ionization (ESI^+) mode, capillary at 4,000 V, ion-spray gas temperature at 350 °C, gas flow rate at 11 L/min, and nebulizer at 15 psi. The parameters of Sax and Sit were as follows: fragmentary voltage at 110 V and 130 V, collision energy at 22 units and 18 units, respectively. The multiple-reaction monitoring mode was selected for quantifying of Sax and Sit, for which the precursor-to-product ion transitions were 316.1 → 179.9 and 407.9 → 234.9, respectively. The MassHunter Workstation software (Version B.06.00, Agilent) was used to collect and process data.
Statistical analysis and pharmacokinetics parameter analysis were performed with SPSS 16.0 (SPSS Inc., Chicago, IL, USA) and DAS 2.1 software (Drug and Statistics, Shanghai University of Traditional Chinese Medicine, Shanghai, China). Differences between the two groups were analyzed via independent-samples t Test. Data was expressed as mean ± standard deviation (SD). p < 0.05 was considered statistically significant.

liver microsomal enzyme = experiment: Metabolism of Sax using liver microsomal enzyme in vitro; type: in vitro ADME, GK rats; settings: decreased from 0.50 mg/mL
Protocol: The control and CUMS-induced rats were fasted for 12 h and killed by cervical dislocation before removal of the liver. The liver was excised, rinsed with ice-cold normal saline (0.9% NaCl, w/v), weighed for 1 g, and homogenized with 4.0 mL in a 0.05M Tris–HCl buffer (pH 7.4). The homogenate was centrifuged at 10,000 × g at 4 °C for 20 min, and the supernatant was further centrifuged at 105,000 × g at 4 °C for 60 min. The helvus sediment was reconstituted with 1.0 mL Tris–HCl buffer and stored at −80 °C for analysis.
The incubation mixtures (final volume: 500 µL) contained 1 mg/mL microsomal protein, 0.1 M phosphate buffer (PH = 7.4), 1 mM nicotinamide adenine dinucleotide phosphate (NADPH), probe drugs (1 mg/mL Phe, Ven, Nif). A total of 100 µL microsomal protein and 100 µL probe drugs were added with 250 µL phosphate buffer in a brown centrifuge tube, vortex-mixed for 1 min, and incubated at 37 °C water. After 5 min pre-incubation, the reactions were initiated by the addition of 50 µL NADPH. The incubations were performed at 37 °C for 20 min in a water bath and terminated by adding 1.4 mL cold ethyl acetate and 20 µL Lor (5 µg/mL). […]
It is well known that Sax is mainly metabolized by cytochrome 3A enzyme in the liver. […] Considering of the complicacy of metabolic system in vivo, we detected metabolism of Sax using liver microsomal enzyme in vitro with cocktails method. […]

[2] = set-up: method as in Fura et al., 2009; settings: rats; ref Fura et al., 2009; cited from earlier work
[3] = GK, rat, 0.5 mg/kg, control group (diabetic GK rats), 0.5 mg/kg oral
[4] = GK, rat, 0.5 mg/kg, depression group (CUMS-induced, GK rats), 0.5 mg/kg oral
[5] = depression group vs control group, 0.5 mg/kg oral, p < 0.05

concentration at 5 h ([1]; GK, rat, 0.5 mg/kg, single plasma sample at 5 h after oral Sax (chromatogram, Fig. 3C), group not stated): 3.05 ng/mL | AUC(0-inf) [1, 3]: 67.1 ± 14.1 ng·h/mL | Cmax [1, 3]: 20.5 ± 4.61 ng/mL | Tmax [1, 3]: 1.46 ± 0.38 h | MRT last [1, 3]: 2.55 ± 0.32 h | half-life [1, 3]: 1.73 ± 0.43 h | Vd/F [1, 3]: 21 ± 8.22 L | AUC(0-inf) [1, 4]: 44.6 ± 15.5 ng·h/mL | Cmax [1, 4]: 14.8 ± 6.03 ng/mL | Tmax [1, 4]: 1.04 ± 0.25 h | MRT last [1, 4]: 1.95 ± 0.57 h | half-life [1, 4]: 1.58 ± 0.59 h | Vd/F [1, 4]: 29.8 ± 14.2 L | CLz/F ([1]; control group (diabetic GK rats), 0.5 mg/kg oral): 7.35 ± 1.34 L/h | CLz/F ([1]; depression group (CUMS-induced, GK rats), 0.5 mg/kg oral): 13.05 ± 6.30 L/h | decrease of area under curve (AUC0−∞) in the depression group [1, 5]: 33% | decrease of mean residence time (MRT0−t) in the depression group [1, 5]: 24% | decrease of peak concentration (Cmax) in the depression group [1, 5]: 27% | decrease of peak time (Tmax) in the depression group [1, 5]: 29% | concentration of Sax after incubation with liver microsomal enzyme (liver microsomal enzyme; control group microsomes): 350000 ng/mL | concentration of Sax after incubation with liver microsomal enzyme (liver microsomal enzyme; depression group microsomes): 150000 ng/mL
SMILES: N#C[C@@H]1C[C@@H]2C[C@@H]2N1C(=O)[C@@H](N)C12CC3CC(CC(O)(C3)C1)C2 [Sax, (S)-3-hydroxyadamantylglycine-L-cis-4,5-methanoprolinenitrile]
oral bioavailability [2]: good oral bioavailability
